Values quoted from earlier work as cited in patent US20030162756A1, “Use of 2-hydroxy or 2-acetyloxy-4-trifluoromethylbenzoic acid derivatives as an agent for the treatment and prevention of mild cognitive impairment” (J. Uriach & CIA. S.A., priority 2001, published 2003).

Tested on: platelet aggregation
Conditions: described in U.S. Pat. No. 4,096,252; cited from earlier work

Structure (SMILES): O=C(O)c1ccc(C(F)(F)F)cc1O [HTB, 2-hydroxy-4-trifluoromethylbenzoic acid]
- activity as platelet anti-aggregant: remarkable activity as platelet anti-aggregant
